From publication PMC13071878, “Yeast Display Technology Enables Rapid Discovery of Low-Nanomolar Macrocyclic Peptide Inhibitors of Human Angiotensin-Converting Enzyme 2” (Journal of Medicinal Chemistry, 2026)

Legend:
hACE2 [1] = molecular target: T1, hACE2 (Homo sapiens, UniProt Q9BYF1); assay: biochemical
Description: The activity assay was performed by incubating 0.25 nM of hACE2 with 50 μM fluorogenic substrate Mca-Ala-Pro-Lys­(Dnp)–OH (MedChemExpress, Monmouth Junction, NJ, USA) and 3-fold MP dilutions (ranging from 0.03 nM to 100 μM). […] All reagents were diluted in 10 mM Tris–HCl, pH 7.4, 300 mM NaCl, 100 μM ZnCl2, 0.1% w/v BSA, and 0.1% v/v DMSO assay buffer. The measurements were performed on a Berthold TriStar LB 941 microplate reader (Berthold Technologies, Bad Wildbad, Germany) using flat-bottom 96-well half area Corning Costar plates (Corning, New York, USA). The enzymatic reactions were performed at 25 °C for 90 min, under shaking with a maximum excitation wavelength (λex) of 320 nm and maximum emission wavelength (λem) of 405 nm. The initial velocities were monitored as changes in fluorescence intensity. Half-maximum inhibitory concentration (IC50) values were determined using GraphPad Prism v8.2.1 software (GraphPad software Inc., San Diego, CA, USA). […] Fluorescence was recorded as described earlier (λex = 320 nm, λem = 405 nm) using a Berthold TriStar LB 941 microplate reader (Berthold Technologies, Bad Wildbad, Germany). Initial velocities (V 0) were plotted against substrate concentrations [S] and analyzed via nonlinear regression using a one-site specific binding model using GraphPad Prism v8.2.1 software (GraphPad software Inc., San Diego, CA, USA). […]

hACE1 = molecular target: T2, hACE1 (Homo sapiens, UniProt P12821); assay: biochemical
T2 construct: purchased R&D Systems
Description: The activity assay was performed by incubating 0.25 nM of hACE2 with 50 μM fluorogenic substrate Mca-Ala-Pro-Lys­(Dnp)–OH (MedChemExpress, Monmouth Junction, NJ, USA) and 3-fold MP dilutions (ranging from 0.03 nM to 100 μM). […] All reagents were diluted in 10 mM Tris–HCl, pH 7.4, 300 mM NaCl, 100 μM ZnCl2, 0.1% w/v BSA, and 0.1% v/v DMSO assay buffer. The measurements were performed on a Berthold TriStar LB 941 microplate reader (Berthold Technologies, Bad Wildbad, Germany) using flat-bottom 96-well half area Corning Costar plates (Corning, New York, USA). The enzymatic reactions were performed at 25 °C for 90 min, under shaking with a maximum excitation wavelength (λex) of 320 nm and maximum emission wavelength (λem) of 405 nm. The initial velocities were monitored as changes in fluorescence intensity. Half-maximum inhibitory concentration (IC50) values were determined using GraphPad Prism v8.2.1 software (GraphPad software Inc., San Diego, CA, USA). […] Reactions were initiated by adding hACE2 (final concentration 0.25 nM) to the fluorogenic substrate in assay buffer at 25 °C. Fluorescence was recorded as described earlier (λex = 320 nm, λem = 405 nm) using a Berthold TriStar LB 941 microplate reader (Berthold Technologies, Bad Wildbad, Germany). Initial velocities (V 0) were plotted against substrate concentrations [S] and analyzed via nonlinear regression using a one-site specific binding model using GraphPad Prism v8.2.1 software (GraphPad software Inc., San Diego, CA, USA). […] All reagents were diluted in 10 mM Tris-HCl, pH 7.4, 300 mM NaCl, 100 μM ZnCl2, 0.1% w/v BSA, and 0.1% v/v DMSO buffer. Measurements and data analysis were performed as mentioned above.

hACE2 [2] = molecular target: T1, hACE2; assay: Grating-coupled interferometry of synthetic MPs on immobilized hACE2; format: binding; details: synthetic MP, immobilized hACE2, 25 °C, pH 7.4, n = 1; read-out: KD (GCI)
Description: Measurements were performed using a Creoptix WAVEsystem and a 4PCH-STA WAVEchip (Creoptix, Malvern Panalytical, Malvern, UK). Prior to immobilization, all four flow channels were conditioned with 100 mM sodium borate, 1 M NaCl buffer pH 9.0, for 180 s at 10 μL/min, followed by three start-up cycles (3 cycles of 60 s at 10 μL/min) in running buffer (1X PBS pH 7.4 supplemented with 0.005% v/v Tween-20). Biotinylated hACE2 (10 μg/mL in running buffer) was captured on the chip surface with a 420 s injection cycle at 10 μL/min, achieving a target immobilization level of approximately 1000 pg/mm^2 surface mass per flow cell. Excess of unbound hACE2 was removed by washing with running buffer for 60 s at 10 μL/min. Binding experiments were conducted using regeneration-free kinetics (RFK). Seven serial 2-fold dilutions of each synthetic MP (2.5, 5, 10, 20, 40, 80, and 160 nM in running buffer) were injected at 25 °C with a continuous flow rate of 60 μL/min. Each MP concentration was allowed to associate for 60 s and dissociate for 45 s, with a final dissociation phase of 300 s monitored after the highest concentration. Response signals were double-referenced by subtracting the signal from an unmodified reference channel (untreated flow cell without hACE2 protein) and the signal from blank buffer injections to correct for bulk refractive index changes and systematic artifacts.

hACE2 [3] = molecular target: T1, hACE2; assay: Isothermal titration calorimetry of synthetic MPs with hACE2; format: binding; details: 25 °C
Description: Isothermal titration calorimetry (ITC) experiments were performed at 25 °C using a MicroCal iTC200 instrument ([…], Malvern Panalytical, Malvern, UK). The hACE2 protein (initial stock 11 mg/mL, 20 mM Tris pH 7.4, 200 mM NaCl) was diluted into the assay buffer (100 mM Tris pH 7.4, 200 mM NaCl) to a final concentration of 5 μM. […] Titrations consisted of an initial 0.4 μL injection (excluded from subsequent data analysis), followed by 18 injections of 2 μL each, with a stirring rate of 750 rpm to ensure rapid mixing. A 120 s interval was maintained between injections to ensure the baseline returned to equilibrium. Blank experiments involving the titration of the synthetic MPs into the assay buffer were performed to determine and subtract the heats of dilution. Data processing was conducted using the Origin software package version 7 (OriginLab Corporation, Northampton, MA, USA). The integrated heat signals were fitted to a single-site binding model to determine the association constant (K A), the dissociation constant ([…]), the enthalpy change (ΔH), and the binding stoichiometry (n). The Gibbs free energy (ΔG) and the entropy change (ΔS) were calculated using the standard thermodynamic relationship: ΔG=ΔH−TΔS=−RTln(KA)

[4] = Plasma stability of synthetic peptides (LC-MS); details: 37 °C
Description: The mixtures were incubated at 37 °C in a water bath (VWR, Pennsylvania, PA, USA). At designated time points (0, 0.25, 0.5, 1, 2, 4, 8, 24, and 48 h), 100 μL aliquots were withdrawn and quenched with 100 μL of 100% v/v ACN. Following centrifugation (10 min at 15000 g, 4 °C), 100 μL of the supernatant was collected and diluted with 50 μL of solvent A (99.9% v/v H2O and 0.1% v/v FA). Samples were characterized by LC–MS using an Agilent 1260 Infinity II LC system coupled to an InfinityLab LC/MSD mass spectrometer (Agilent Technologies, Santa Clara, CA, USA). The system operated with a standard ESI source in negative ionization mode. Separation was performed on a reversed-phase Symmetry C18 column (5 μm, 150 mm × 4.6 mm, Waters, Milford, MA, USA) using a linear gradient of 10–100% solvent B over 22 min at a flow rate of 0.6 mL/min (Solvent A: 99.9% v/v H2O and 0.1% v/v FA; Solvent B: 99.9% v/v ACN and 0.1% v/v FA). Data acquisition, processing, and analysis were performed using MestReNova v.12.0.1 (Mestrelab Research, Santiago de Compostela, Spain). All samples were analyzed in duplicate (n = 2). The percentage of remaining peptide was calculated by integrating the peak areas, with the area at 0 h defined as 100%. Half-lives (t 1/2) were determined via nonlinear regression analysis using GraphPad Prism (GraphPad software Inc., San Diego, CA, USA). Data are presented as mean values ± s.d.

[5] = system: mouse model of induced colitis; design: method as in ref 26 (Byrnes et al. 2009); details: 300 mg/kg twice daily, citation mark lost in text, ref 26 (Byrnes et al. 2009); cited from earlier work

T1 sequence (Q9BYF1 19-615): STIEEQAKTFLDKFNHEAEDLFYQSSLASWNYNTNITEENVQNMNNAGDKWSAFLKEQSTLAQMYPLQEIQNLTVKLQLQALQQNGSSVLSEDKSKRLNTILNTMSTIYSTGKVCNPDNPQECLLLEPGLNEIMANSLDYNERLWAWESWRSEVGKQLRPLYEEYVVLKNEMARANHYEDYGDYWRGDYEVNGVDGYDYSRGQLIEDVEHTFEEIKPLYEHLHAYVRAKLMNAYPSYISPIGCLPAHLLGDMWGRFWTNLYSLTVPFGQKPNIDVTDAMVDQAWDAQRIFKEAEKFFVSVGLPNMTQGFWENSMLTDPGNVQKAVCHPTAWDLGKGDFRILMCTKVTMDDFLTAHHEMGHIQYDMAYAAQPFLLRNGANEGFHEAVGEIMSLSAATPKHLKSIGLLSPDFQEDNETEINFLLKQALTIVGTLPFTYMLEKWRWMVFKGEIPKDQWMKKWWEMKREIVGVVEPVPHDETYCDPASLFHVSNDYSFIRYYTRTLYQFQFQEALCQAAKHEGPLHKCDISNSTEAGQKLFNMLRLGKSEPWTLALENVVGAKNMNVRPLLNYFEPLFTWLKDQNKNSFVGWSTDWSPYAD
T2 sequence (P12821 30-1306): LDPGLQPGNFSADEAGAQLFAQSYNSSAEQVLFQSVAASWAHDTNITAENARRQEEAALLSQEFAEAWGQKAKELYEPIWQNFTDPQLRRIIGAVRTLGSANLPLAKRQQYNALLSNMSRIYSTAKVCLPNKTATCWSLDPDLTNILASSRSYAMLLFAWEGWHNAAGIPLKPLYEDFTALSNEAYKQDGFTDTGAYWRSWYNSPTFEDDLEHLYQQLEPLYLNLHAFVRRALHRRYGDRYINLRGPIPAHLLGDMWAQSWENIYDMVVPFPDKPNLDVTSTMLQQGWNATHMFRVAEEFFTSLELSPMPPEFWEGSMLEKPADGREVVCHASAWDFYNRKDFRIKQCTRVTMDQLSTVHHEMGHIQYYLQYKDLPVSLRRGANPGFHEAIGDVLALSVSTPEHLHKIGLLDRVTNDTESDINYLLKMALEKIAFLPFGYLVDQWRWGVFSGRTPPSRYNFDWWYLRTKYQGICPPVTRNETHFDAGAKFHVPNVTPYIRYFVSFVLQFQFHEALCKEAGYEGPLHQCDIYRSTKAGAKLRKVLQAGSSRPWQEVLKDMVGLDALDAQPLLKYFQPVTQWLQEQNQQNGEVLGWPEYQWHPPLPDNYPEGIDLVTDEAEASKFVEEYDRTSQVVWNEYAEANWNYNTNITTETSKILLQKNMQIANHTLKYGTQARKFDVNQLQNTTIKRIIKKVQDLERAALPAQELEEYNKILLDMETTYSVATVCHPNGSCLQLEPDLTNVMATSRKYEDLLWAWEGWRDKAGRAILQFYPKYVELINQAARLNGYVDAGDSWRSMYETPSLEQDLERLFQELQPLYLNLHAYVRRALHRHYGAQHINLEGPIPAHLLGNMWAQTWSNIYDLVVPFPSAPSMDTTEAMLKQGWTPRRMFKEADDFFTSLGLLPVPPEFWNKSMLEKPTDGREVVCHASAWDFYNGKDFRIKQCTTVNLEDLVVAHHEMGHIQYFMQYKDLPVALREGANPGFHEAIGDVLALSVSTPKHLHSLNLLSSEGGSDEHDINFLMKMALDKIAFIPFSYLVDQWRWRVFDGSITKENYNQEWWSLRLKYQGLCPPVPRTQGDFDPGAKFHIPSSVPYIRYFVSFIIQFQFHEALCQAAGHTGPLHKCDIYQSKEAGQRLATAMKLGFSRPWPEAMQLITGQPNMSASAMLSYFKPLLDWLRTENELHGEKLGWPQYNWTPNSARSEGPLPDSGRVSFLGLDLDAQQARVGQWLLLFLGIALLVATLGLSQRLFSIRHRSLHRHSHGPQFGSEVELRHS

Row | Compound | Ki (hACE2 [1]) [nM] | IC50 (hACE1) [µM] | Ki (hACE1) [µM] | Kd (hACE2 [2]) [nM] | ΔH (ITC) (hACE2 [3]) [kJ/mol] | -TΔS (ITC) (hACE2 [3]; calculated) [kJ/mol] | t1/2 times longer than GR1.1 ([4]; human plasma) [times] | t1/2 times longer than GR1.4 ([4]; human plasma) [times] | half-life ([4]; human, plasma, plasma half-life t1/2, human plasma, 10 μM, LC-MS, n = 2) [min] | effect on disease severity [5]
1 | CC(C)C[C@@H]1NC(=O)[C@H](Cc2ccccc2)NC(=O)[C@@H](NC(=O)[C@H](C)N)CSSC[C@@H](C(=O)N[C@@H](CO)C(=O)NCC(N)=O)NC(=O)[C@H](Cc2c[nH]c3ccccc23)NC(=O)[C@H](CC(C)C)NC(=O)[C@H](Cc2c[nH]c3ccccc23)NC(=O)[C@@H]2CSSC[C@H](NC(=O)[C@H](CCCNC(=N)N)NC1=O)C(=O)N[C@@H](Cc1c[nH]cn1)C(=O)N[C@@H](CCCNC(=N)N)C(=O)N[C@@H](CC(=O)O)C(=O)N[C@@H](C(C)C)C(=O)N[C@@H](CCCCN)C(=O)N2 [GR3.1.2] | 1.5 | > 100 | > 100 | 4.1 | -34.1 ± 0.6 | -8.2 | 1.5 | 1.3 | 516 | –
2 | CC(C)C[C@H](N[C@@H](Cc1cncn1Cc1cc(Cl)cc(Cl)c1)C(=O)O)C(=O)O [MLN-4760] | – | – | – | – | – | – | – | – | – | reduce disease severity
